Tests used:
NF-κB = test: TNF-α-induced NF-κB-dependent luciferase expression in HEK cells; assay type: cell-based; settings: luciferase in HEK/NF-κB cells, as described in Example 398; for inhibition at 1 µM: Homo sapiens, HEK293, 1 uM, read-out: NFkB inhibition @ 1 uM
carageenan-induced edema = test: Carrageenan-induced rat paw edema test (anti-inflammatory activity); assay type: in vivo, Sprague-Dawley rats
Procedure, shortened: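 Sprague-Dawley rats (male and female, 150-250 g), fasted 18 h, given compound orally at 50 mg/kg in 0.1% sodium CMC (alternatively i.v., s.c. or i.p.). 1% carrageenan injected sub-plantar in right hind paw 1 h later. Paw displacement read again 3 h later; % protection = [(Control−Test)/Control]×100 versus saline control.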

AP-1 = test: PMA-induced AP-1 luciferase expression in HEK cells; assay type: cell-based; settings: luciferase in HEK/AP-1 cells, as described in Example 398; for inhibition at 1 µM: AP1, 1 uM
[1] = Rattus norvegicus, po, 3 h, rat paw edema, 50 mg/kg, reading 3 hours after carrageenan; [(Control−Test)/Control]×100%; read-out: % Protection P
[2] = rat paw edema, 50 mg/kg, reading 3 hours after carrageenan; [(Control−Test)/Control]×100%

Compound	inhibition at 1 µM (NF-κB) [%]	inhibition in vivo at 50 mg/kg (carageenan-induced edema; [1]) [%]	inhibition at 1 µM (AP-1) [%]	NFkB inhibition @ 1 uM (NF-κB)	% Protection P (carageenan-induced edema; [2]) [%]	AP-1 inhibition @ 1 uM (AP-1)	% Protection P (carageenan-induced edema; rat paw edema, 50 mg/kg, reading 3 hours after carrageenan; [(Control−Test)/Control]×100%; 50 mg/kg) [%]
Cc1ccc(C(=O)c2cc(-c3ccccc3)c(N3CCOCC3)s2)cc1 [Example 43, (5-Morpholin-4-yl-4-phenyl-thiophen-2-yl)-p-tolyl-methanone]	-15.3	5.33	27.3	–	–	–	–
COc1ccc(Nc2nc(N)c(C(=O)c3ccc(C)cc3)s2)cc1 [Example 344, ([4-Amino-2-(4-methoxy-phenylamino)-thiazol-5-yl]-p-tolyl-methanone)]	49	79.8	70.3	–	–	–	–
Dimethyl[carbonyl-bis(4-phenyl-1,3-thiazole-5,2-diyl)]biscarbamate [Example 130]	–	–	–	12.78	40.78	9.2	–
CS(=O)(=O)c1ccc(-c2cc(-c3nc4ccccc4c(=O)n3-c3ccc(Cl)cc3)sc2N2CCOCC2)cc1 [Example 312, 2-[4-(4-Methanesulphonyl-phenyl)-5-morpholin-4-yl-thiophen-2-yl]-3-(4-chloro-phenyl)-3H-quinazolin-4-one]	0	57	7	–	–	–	–
COc1c(C)cnc(-c2sc(N3CCN(C(=O)c4ccco4)CC3)nc2-c2ccccc2)c1C [Example 388, Furan-2-yl-{4-[5-(4-methoxy-3,5-dimethyl-pyridin-2-yl)-4-phenyl-thiazol-2-yl]-piperazin-1-yl}-methanone]	7.64	73.4	52.1	–	–	–	–
CSc1ccc(C(=O)c2cc(-c3cccnc3)c(N3CCOCC3)s2)cc1 [Example 95, (4-Methylsulfanyl-phenyl)-(5-morpholin-4-yl-4-pyridin-3-yl-thiophen-2-yl)-methanone]	–	–	–	11.24	–	64.02	42.44
COc1ccc(C(=O)c2sc(Nc3ccc(Cl)cc3)nc2N)cc1 [Example 332, [4-Amino-2-(4-chloro-phenylamino)-thiazol-5-yl]-(4-methoxy-phenyl)-methanone]	0.13	36	-32.2	–	–	–	–
Bis-[2-(2-benzoyl-amino)-4-benzayl-thiazole-5-yl]-methanone [Example 135]	–	–	–	39.98	34.72	41.43	–
CC(=O)Nc1ccc(-c2cc(C(=O)c3ccc(Cl)cc3Cl)sc2N2CCOCC2)cc1 [Example 70, N-{4-[5-(2,4-Dichloro-benzoyl)-2-morpholin-4-yl-thiophene-3-yl]-phenyl}-acetamide]	18.6	39.2	54	–	–	–	–
CS(=O)(=O)c1ccc(-c2cc(C(=O)c3ccncc3)sc2N2CCOCC2)cc1 [Example 63, [4-(4-Methanesulfonyl-phenyl)-5-morpholin-4-yl-thiophene-2-yl]-pyridin-4-yl-methanone]	10.5	50	5.71	–	–	–	–
N-{4-[4-(4-Chloro-phenyl)-5-morpholin-4-yl-thiophen-2-carbonyl]-phenyl}acetamide [Example 85]	–	–	–	−17.34	20	22.58	–
CSc1ccc(C(=O)c2cc(-c3ccccc3)c(N3CCOCC3)s2)cc1 [Example 47, (4-Methylsulfanyl-phenyl)-(5-morpholin-4-yl-4-phenyl-thiophene-2-yl)-methanone]	-1.5	5	21.2	–	–	–	–
COc1ccc(Nc2nc(N)c(-c3nccc(OCC(F)(F)F)c3C)s2)cc1 [Example 353, (N2-(4-Methoxy-phenyl)-5-[3-Methyl-4-(2,2,2-trifluoro-ethoxy)-pyridin-2-yl]-thiazole-2,4-diamine)]	59.1	82.5	62	–	–	–	–
CS(=O)(=O)c1ccc(-c2cc(-c3nc4ccccc4c(=O)n3-c3ccccc3)sc2N2CCOCC2)cc1 [Example 275, 2-[4-(4-Methanesulfonyl-phenyl)-5-morpholin-4-yl-thiophen-2-yl]-3-phenyl-3H-quinazolin-4-one]	9	25	28	–	–	–	–
Cc1nc(Nc2ccccc2)sc1C(=O)c1sc(Nc2ccccc2)nc1C [Example 119, Bis-(4-methyl-2-phenylamino-thiazole-5-yl)-methanone]	8.39	45.5	26	–	–	–	–
O=C(c1ccncc1)c1cc(-c2ccccc2)c(N2CCOCC2)s1 [Example 51, (5-Morpholin-4-yl-4-phenyl-thiophene-2-yl)-pyridine-4-yl-methanone]	8.36	39.6	16.8	–	–	–	–
Cc1ccc(C(=O)c2cc(-c3cccnc3)c(N3CCOCC3)s2)cc1 [Example 91, (5-Morpholin-4-yl-4-pyridin-3-yl-thiophene-2-yl)-p-tolyl-methanone]	1.28	25.3	49	–	–	–	–
O=C(c1ccc(Cl)cc1)c1sc(N2CCN(C(=O)c3ccco3)CC2)nc1-c1ccco1 [Example 373, (4-Chloro-phenyl)-{2-[4-(furan-2-carbonyl)-piperazin-1-yl]-4-furan-2-yl-thiazol-5-yl}-methanone]	-6.07	42	26.9	–	–	–	–
CS(=O)(=O)c1ccc(C(=O)c2cc(-c3ccncc3)c(N3CCOCC3)s2)cc1 [Example 108, (4-Methylsulfonyl-phenyl)-(5-morpholin-4-yl-4-pyridin-4-yl-thiophen-2-yl)-methanone]	-8.31	54.2	46.6	–	–	–	–
COc1ccc(C(=O)c2cc(-c3ccc(Cl)cc3)c(N3CCOCC3)s2)cc1 [Example 80, [4-(4-Chloro-phenyl)-5-morpholin-4-yl-thiophen-2-yl]-(4-methoxy-phenyl)-methanone]	-2.91	18.9	30.6	–	–	–	–
O=C(c1ccc(Cl)cc1)c1sc(N2CCN(C(=O)c3ccco3)CC2)nc1-c1ccccc1 [Example 383, (4-Chloro-phenyl)-{2-[4-(furan-2-carbonyl)-piperazin-1-yl]-4-phenyl-thiazol-5-yl}-methanone]	-0.23	62	13.3	–	–	–	–
CS(=O)(=O)c1ccc(C(=O)c2sc(N3CCN(C(=O)c4ccco4)CC3)nc2-c2ccco2)cc1 [Example 375, {2-[4-(Furan-2-carbonyl)-piperazin-1-yl]-4-furan-2-yl-thiazol-5-yl}-(4-methanesulfonyl-phenyl)-methanone]	-13.2	49	22.1	–	–	–	–
Cc1c(OCC(F)(F)F)ccnc1-c1sc(N2CCN(C(=O)c3ccco3)CC2)nc1-c1ccco1 [Example 379, Furan-2-yl-(4-{4-furan-2-yl-5-[3-methyl-4-(2,2,2-trifluoro-ethoxy)-pyridin-2-yl]-thiazol-2-yl}-piperazin-1-yl)-methanone]	51.1	62.4	3.23	–	–	–	–
CNc1nc(-c2ccccc2)c(C(=O)c2sc(NC)nc2-c2ccccc2)s1 [Example 125, Bis-(2-methylamino-4-Phenyl-thiazole-5-yl)-methanone]	27.1	23.2	23.8	–	–	–	–
COC(=O)Nc1nc(Cc2ccccc2)c(C(=O)c2sc(NC(=O)OC)nc2Cc2ccccc2)s1 [Example 137, Dimethyl[carbonyl-bis(4-benzyl-1,3-thiazole-5,2-diyl)]biscarbamate]	7.69	47.2	51.3	–	–	–	–
O=c1c2ccccc2nc(-c2cc(-c3ccc(Cl)cc3)c(N3CCOCC3)s2)n1-c1ccc(Cl)cc1 [Example 310, 2-[4-(4-Chloro-phenyl)-5-morpholin-4-yl-thiophene-2-yl]-3-(4-chloro-phenyl)-3H-quinazolin-4-one]	0	60	14	–	–	–	–

From patent publication US8829014B2, “Thiazole and thiophene analogues, and their use in treating autoimmune diseases and cancers” (Board of Supervisors of Louisiana State University and …, priority 2006, dated 2014)
